Source: patent US9321782B2, “Process for preparation of novel 42-O-(heteroalkoxyalkyl) rapamicin compounds with anti-proliferative properties” (MERIL LIFE SCIENCES PVT. LTD., priority 2010, dated 2016)

How the values were obtained:
[1] = Stability analysis (HPLC purity on storage) without BHT at various temperatures; assay type: physicochemical; settings: without BHT
Description: (§1) To check the purity of the 42-O-(heteroalkoxyalkyl) rapamycin compounds the following condition was followed by using High Performance Liquid Chromatography, Phenomenex Synergi Hydro-RP 80a (250×4.6 ) mm, 4 micron column. The mobile phase was 65:15:20 methanol:acetonitile:water mixture. The detector was set at 276 nm and the flow rate was adjusted to 1.5 mL/min. Column temperature was 40° C. 2.0 μg of 42-O-(heteroalkoxyalkyl) rapamycin compounds was injected onto the column in a volume of 5.0 μL methanol with run time of 50 min.
The purity loss was higher at increased temperature, but there was no apparent change in the impurity profile. Table 2A presents the purity of various 42-O-(heteroalkoxyalkyl) rapamycin compounds at different time intervals and temperature conditions.

[2] = Stability analysis (HPLC purity on storage) with various concentrations of BHT at 40° C.; assay type: physicochemical; settings: sealed container
Description: as §1
The inventors have also conducted the stability study of various 42-O-(heteroalkoxyalkyl) rapamycin compounds as mentioned above using various BHT concentrations. The study was conducted at 40° C. temperature in sealed container for 8 weeks.
42-O-(heteroalkoxyalkyl) rapamycin compounds obtained as per procedure described in Example 1 are respectively added with anti-oxidant, namely Butylated Hydroxytoluene (or BHT), at a concentration of 0.1%, 0.2%, 0.5%, and 1.0% (w/w) based on 100% (w/w) of 42-O-(heteroalkoxyalkyl) rapamycin compounds in sealed container to study the stability at 40° C. temperature. […] The purity data with the addition of different amounts of anti-oxidant as added to 42-O-(tetrahydrofuran-3-yl) rapamycin compound, 42-O-(oxetan-3-yl) rapamycin compound and 42-O-(tetrahydropyran-3-yl) rapamycin compound checked at different time intervals are summarized in Table 2B as below mentioned.

Purity (%) ([1]; 5° C. (sealed), 00 weeks after synthesis): 97.3%
Purity (%) ([1]; 5° C. (sealed), 02 weeks after synthesis): 96.0%
Purity (%) ([1]; 5° C. (sealed), 04 weeks after synthesis): 95.4%
Purity (%) ([1]; 5° C. (sealed), 08 weeks after synthesis): 94.5%
Purity (%) ([1]; 5° C. (sealed), 12 weeks after synthesis): 93.9%
Purity (%) ([1]; 25° C. (sealed), 00 weeks after synthesis): 97.6%
Purity (%) ([1]; 25° C. (sealed), 02 weeks after synthesis): 95.7%
Purity (%) ([1]; 25° C. (sealed), 04 weeks after synthesis): 95.2%
Purity (%) ([1]; 25° C. (sealed), 08 weeks after synthesis): 94.6%
Purity (%) ([1]; 25° C. (sealed), 12 weeks after synthesis): 93.5%
Purity (%) ([1]; 25° C. (unsealed), 00 weeks after synthesis): 97.0%
Purity (%) ([1]; 25° C. (unsealed), 02 weeks after synthesis): 95.3%
Purity (%) ([1]; 25° C. (unsealed), 04 weeks after synthesis): 94.5%
Purity (%) ([1]; 25° C. (unsealed), 08 weeks after synthesis): 93.8%
Purity (%) ([1]; 25° C. (unsealed), 12 weeks after synthesis): 93.1%
Purity (%) ([1]; 40° C. (sealed), 00 weeks after synthesis): 97.5%
Purity (%) ([1]; 40° C. (sealed), 02 weeks after synthesis): 94.4%
Purity (%) ([1]; 40° C. (sealed), 04 weeks after synthesis): 93.7%
Purity (%) ([1]; 40° C. (sealed), 08 weeks after synthesis): 92.3%
Purity (%) ([1]; 40° C. (sealed), 12 weeks after synthesis): 91.6%
Purity (%) ([2]; BHT 0.0% (w/w), 0 week): 97.5%
Purity (%) ([2]; BHT 0.0% (w/w), 2 weeks): 94.4%
Purity (%) ([2]; BHT 0.0% (w/w), 4 weeks): 93.7%
Purity (%) ([2]; BHT 0.0% (w/w), 8 weeks): 92.3%
Purity (%) ([2]; BHT 0.1% (w/w), 0 week): 97.5%
Purity (%) ([2]; BHT 0.1% (w/w), 2 weeks): 95.9%
Purity (%) ([2]; BHT 0.1% (w/w), 4 weeks): 94.3%
Purity (%) ([2]; BHT 0.1% (w/w), 8 weeks): 93.6%
Purity (%) ([2]; BHT 0.2% (w/w), 0 week): 97.6%
Purity (%) ([2]; BHT 0.2% (w/w), 2 weeks): 96.3%
Purity (%) ([2]; BHT 0.2% (w/w), 4 weeks): 95.6%
Purity (%) ([2]; BHT 0.2% (w/w), 8 weeks): 94.1%
Purity (%) ([2]; BHT 0.5% (w/w), 0 week): 97.3%
Purity (%) ([2]; BHT 0.5% (w/w), 2 weeks): 96.5%
Purity (%) ([2]; BHT 0.5% (w/w), 4 weeks): 95.9%
Purity (%) ([2]; BHT 0.5% (w/w), 8 weeks): 94.5%
Purity (%) ([2]; BHT 1.0% (w/w), 0 week): 97.4%
Purity (%) ([2]; BHT 1.0% (w/w), 2 weeks): 96.6%
Purity (%) ([2]; BHT 1.0% (w/w), 4 weeks): 95.6%
Purity (%) ([2]; BHT 1.0% (w/w), 8 weeks): 94.9%
SMILES: COC1CC(C[C@H](C)[C@@H]2CC(=O)[C@H](C)/C=C(\C)C(O)[C@@H](OC)C(=O)[C@H](C)C[C@H](C)/C=C/C=C/C=C(\C)[C@@H](OC)C[C@@H]3CC[C@@H](C)[C@@](O)(O3)C(=O)C(=O)N3CCCC[C@H]3C(=O)O2)CCC1OC1CCCOC1 (stereo partly shown) [Merilimus-3, 42-O-(tetrahydropyran-3-yl) rapamycin]
